Source: patent publication US20050130134A1, “Means and methods for monitoring non-nucleoside reverse transcriptase inhibitor antiretroviral therapy and guiding therapeutic decisions in the treatment HIV-AIDS” (ViroLogic, Inc., priority 2000, published 2005)
“And” between values parts separate entries of the source, which are not always exact repeats. Equal entries are not always repeated. “Also recorded” adds a separate entry of the source.

Experiments:
[1] = tested on: HIV-1 reverse transcriptase V106A + Y181C (V106A-Y181C-RTV); assay: Phenotypic susceptibility assay, site directed mutant V106A-Y181C-RTV; format: cell-based; details: >1 loss of susceptibility
Experimental: (§1) Resistance tests were carried out with resistance test vectors using two host cell types. Resistance test vector viral particles were produced by a first host cell (the resistance test vector host cell) that was prepared by transfecting a packaging host cell with the resistance test vector and the packaging expression vector. The resistance test vector viral particles were then used to infect a second host cell (the target host cell) in which the expression of the indicator gene is measured.
(§2) The resistance test vectors containing a functional luciferase gene cassette were constructed and host cells were transfected with the resistance test vector DNA. The resistant test vectors contained patient-derived reverse transcriptase and protease sequences that were either susceptible or resistant to the antiretroviral agents, such as nucleoside reverse transcriptase inhibitors, non-nucleoside reverse transcriptase inhibitors and protease inhibitors. The resistance test vector viral particles produced by transfecting the resistance test vector DNA into host cells, either in the presence or absence of protease inhibitors, were used to infect target host cells grown either in the absence of NRTI or NNRTI or in the presence of increasing concentrations of the drug. […] The IC50 values were determined by plotting percent drug inhibition vs. log10 drug concentration.
(§3) Host cells were seeded in 10-cm-diameter dishes and were transfected several days after plating with resistance test vector plasmid DNA and the envelope expression vector. […] HIV capsid protein (p24) levels in the harvested cell culture media were determined by an EIA method as described by the manufacturer (SIAC; Frederick, Md.). […] The inhibitory effect of the drug was determined using the following equation: % luciferase inhibition=1-(RLUluc[drug]÷RLUluc)×100 where RLUluc [drug] is the relative light unit of luciferase activity in infected cells in the presence of drug and RLUluc is the Relative Light Unit of luciferase activity in infected cells in the absence of drug. […]

[2] = tested on: HIV-1 reverse transcriptase V106A + F227L (V106A-F227-RTV); assay: Phenotypic susceptibility assay, site directed mutant V106A-F227-RTV; format: cell-based; details: >1 loss of susceptibility
Experimental: as §1, §2, §3

[3] = tested on: HIV-1 reverse transcriptase P236L (P236L-RTV); assay: Phenotypic susceptibility assay, site directed mutant P236L-RTV; format: cell-based; details: P236L alone versus wild type reference RTV
Experimental: (§4) Transfections were performed using a calcium-phosphate precipitation procedure. […] Cell lysates were assayed for luciferase activity (FIG. 3). […] The drug inhibition curves are shown in (FIG. 3).
Resistance test vectors were constructed containing the P236L mutation alone and in combination with other known drug resistance mutations (K103N, Y181C) that are known to modulate the susceptibility of HIV-1 to NNRTIs. […] The P236L mutation was also introduced into a RTV containing mutations at K103N, Y181C or both (K103N+Y181C).

[4] = tested on: HIV-1 reverse transcriptase Y181C (Y181C-RTV); assay: Phenotypic susceptibility assay, site directed mutant Y181C-RTV; format: cell-based; details: for resistance profile: Y181C site directed mutant, FIG. 5
Experimental: as §1, §2, §3

[5] = tested on: HIV-1 reverse transcriptase A98G + G190S (A98G-G190S-RTV); assay: Phenotypic susceptibility assay, site directed mutant A98G-G190S-RTV; format: cell-based; details: >1 loss, <1 increased susceptibility
Experimental: as §1, §2, §3

[6] = tested on: HIV-1 reverse transcriptase Y188L (Y188L-RTV); assay: Phenotypic susceptibility assay, site directed mutant Y188L-RTV; format: cell-based; details: >1 loss of susceptibility
Experimental: as §1, §2, §3

[7] = tested on: HIV-1 reverse transcriptase V106A + Y181C + F227L (V106A-Y181C-F227L-RTV); assay: Phenotypic susceptibility assay, site directed mutant V106A-Y181C-F227L-RTV; format: cell-based; details: >1 loss of susceptibility
Experimental: as §1, §2, §3

[8] = tested on: RTV-1033 patient virus (RT V106A, V189L, F227L); assay: Phenotypic susceptibility assay, RTV-1033 (patient 98-1033); format: cell-based, HIV-1
Experimental: as §4

[9] = tested on: RTV-B clone 1 (RT A98G, G190S); assay: Phenotypic susceptibility assay, RTV-B clone 1 (patient B); format: cell-based, HIV-1; details: >1 loss, <1 increased susceptibility
Experimental: as §1, §2, §3

[10] = tested on: HIV-1 reverse transcriptase P225H (P225H-RTV); assay: Phenotypic susceptibility assay, site directed mutant P225H-RTV; format: cell-based; details: P225H alone versus wild type control RTV
Experimental: as §4
Resistance test vectors were constructed containing the P225H mutation alone and in combination with other known drug resistance mutations (K103N, Y181C) known to modulate the HIV susceptibility to NNRTIs. […] (Sakar G and Sommar S S (1994) Biotechniques 8(4), 404-407). […] The P225H mutation was also introduced into a RTV containing additional mutations at K103N, Y181C or both (K103N+Y181C).

[11] = tested on: HIV-1 reverse transcriptase Y181C + A98G (Y181C-A98G-RTV); assay: Phenotypic susceptibility assay, site directed mutant Y181C-A98G-RTV; format: cell-based; details: >1 loss of susceptibility
Experimental: as §1, §2, §3

[12] = tested on: HIV-1 reverse transcriptase G190S (G190S-RTV); assay: Phenotypic susceptibility assay, site directed mutant G190S-RTV; format: cell-based; details: for change in susceptibility: G190S-RTV versus wild type reference RTV; for fold change in susceptibility compared to wild type control RTV: G190S-RTV, >1 loss, <1 increased susceptibility
Experimental: as §1
(§5) The resistance test vectors containing a functional luciferase gene cassette were constructed and host cells were transfected with the resistance test vector DNA. The resistant test vectors contained patient-derived reverse transcriptase and protease sequences that were either susceptible or resistant to the antiretroviral agents, such as nucleoside reverse transcriptase inhibitors, non-nucleoside reverse transcriptase inhibitors and protease inhibitors. The resistance test vector viral particles produced by transfecting the resistance test vector DNA into host cells, either in the presence or absence of protease inhibitors, were used to infect target host cells grown either in the absence of NRTI or NNRTI or in the presence of increasing concentrations of the drug. The amount of luciferase activity produced in infected target host cells in the presence of drug was compared to the amount of luciferase produced in infected target host cells in the absence of drug. Drug resistance was measured as the amount of drug required to inhibit by 50% the luciferase activity detected in the absence of drug (inhibitory concentration 50%, IC50). The IC50 values were determined by plotting percent drug inhibition vs. log10 drug concentration.
Host cells were seeded in 10-cm-diameter dishes and were transfected several days after plating with resistance test vector plasmid DNA and the envelope expression vector. Transfections were performed using a calcium-phosphate precipitation procedure. The cell culture media containing the DNA precipitate was replaced with fresh medium, from one to 24 hours, after transfection. Cell culture media containing resistance test vector viral particles was harvested one to four days after transfection and was passed through a […] filter before being stored at −80° C. HIV capsid protein (p24) levels in the harvested cell culture media were determined by an EIA method as described by the manufacturer (SIAC; Frederick, Md.). Before infection, target cells (293 and 293/T) were plated in cell culture media. Control infections were performed using cell culture media from mock transfections (no DNA) or transfections containing the resistance test vector plasmid DNA without the envelope expression plasmid. One to three or more days after infection the media was removed and cell lysis buffer (Promega) was added to each well. […] The inhibitory effect of the drug was determined using the following equation: % luciferase inhibition=1-(RLUluc[drug]÷RLUluc)×100 where RLUluc [drug] is the relative light unit of luciferase activity in infected cells in the presence of drug and RLUluc is the Relative Light Unit of luciferase activity in infected cells in the absence of drug. IC50 values were obtained from the sigmoidal curves that were generated from the data by plotting the percent inhibition of luciferase activity vs. the log10 drug concentration. […]

[13] = tested on: HIV-1 reverse transcriptase V189L (V189L-RTV); assay: Phenotypic susceptibility assay, site directed mutant V189L-RTV; format: cell-based; details: >1 loss of susceptibility
Experimental: as §1, §2, §3

[14] = tested on: HIV-1 reverse transcriptase G190A (G190A-RTV); assay: Phenotypic susceptibility assay, site directed mutant G190A-RTV; format: cell-based; details: for change in susceptibility: G190A-RTV versus wild type reference RTV
Experimental: as §1, §5
as §3, with “vector. Transfections were performed using a calcium-phosphate precipitation procedure. The cell culture media containing the DNA precipitate was replaced with fresh medium, from one to 24 hours, after transfection.” for “vector.”

[15] = tested on: RTV-1060 patient virus (RT K101E, G190S); assay: Phenotypic susceptibility assay, RTV-1060 (patient 98-1060); format: cell-based, HIV-1; details: >1 decreased susceptibility
Experimental: as §1
The resistance test vectors containing a functional luciferase gene cassette were constructed and host cells were transfected with the resistance test vector DNA. The resistant test vectors contained patient-derived reverse transcriptase and protease sequences that were either susceptible or resistant to the antiretroviral agents, such as nucleoside reverse transcriptase inhibitors, non-nucleoside reverse transcriptase inhibitors and protease inhibitors. […] The IC50 values were determined by plotting percent drug inhibition vs. log10 drug concentration.
as §3
An IC50 was determined for the resistance test vector pool for each drug tested.

Compound	fold change in susceptibility compared to wild type control RTV [1]	fold change in susceptibility compared to wild type control RTV [2]	change in susceptibility [3]	resistance profile [4]	fold change in susceptibility compared to wild type control RTV [5]	fold change in susceptibility compared to wild type control RTV [6]	fold change in susceptibility compared to wild type control RTV [7]	decrease in susceptibility [8]	fold change in susceptibility [9] [fold]	change in susceptibility [10]	fold change in susceptibility compared to wild type control RTV [11]	change in susceptibility [12]	fold change in susceptibility compared to wild type control RTV [12] [fold]	fold change in susceptibility compared to wild type control RTV [13] [fold]	change in susceptibility [14]	change in susceptibility ([14]; listed as delviridine)	fold change in susceptibility [15]	fold change in susceptibility compared to wild type control RTV ([4]; Y181C-RTV, >1 loss of susceptibility)	fold change in susceptibility compared to wild type control RTV ([14]; G190A-RTV) [fold]
CC(C)Nc1cccnc1N1CCN(C(=O)c2cc3cc(NS(C)(=O)=O)ccc3[nH]2)CC1 [delavirdine]	100 fold	3 fold	less susceptible; also recorded: significant reduction	resistance	0.8 fold	9 fold	50 fold	30 fold	0.55	more susceptible; also recorded: increase; also recorded: increases susceptibility	240 fold	slightly more susceptible; also recorded: increase; also recorded: slightly increase susceptibility	0.5	1.8	slightly more susceptible; also recorded: increase; also recorded: slightly increase susceptibility	increased susceptibility	1.5 fold	–	–
O=C1Nc2ccc(Cl)cc2[C@@](C#CC2CC2)(C(F)(F)F)O1 [efavirenz]	4 fold	8 fold	no effect	–	greater than 250 fold	109 fold and 110 fold	12 fold	200 fold	250	little or no change	7 fold	–	8	1.3	–	–	900 fold	3 fold and 4 fold	8
Cc1ccnc2c1NC(=O)c1cccnc1N2C1CC1 [nevirapine]	greater than 800 fold	greater than 800 fold	no significant change; also recorded: little or no reduction	resistance	greater than 800 fold	greater than 800 fold	greater than 800 fold	greater than 800 fold	640	No significant change; also recorded: little or no change	greater than 800 fold	markedly less susceptible; also recorded: decrease; also recorded: greatly reduce susceptibility	75	1.3	markedly less susceptible; also recorded: decrease; also recorded: greatly reduce susceptibility	–	greater than 800 fold	–	–
